Source: publication PMC6856039 (Investigational New Drugs, 2019)
Entries after “also recorded” stand apart in the source; their conditions may differ.

Test system: Japanese patients with advanced EGFR mutation-positive NSCLC
Experiment: Phase I study: dose-limiting toxicities, adverse drug reactions, tolerability
Format: in vivo, human
Conditions: for patients who presented a DLT: Cycle 1 of dose escalation phase; for maximum tolerated dose (MTD): dose escalation phase
Procedure: This was an open-label, non-randomized, dose escalation phase I study conducted between December 14, 2015 and July 7, 2016 at 12 centers in Japan. The study was conducted in three phases (dose escalation phase, expansion phase, and extension phase), and the design is shown in Supplementary Fig. 1 (Online Resource 1). […] In patients who received the BID regimen, the administration interval was ≥10 h.
The first phase was the dose escalation phase conducted according to a 3 + 3 design, with a minimum of three patients treated at each dose level. […] The dosing rationale was derived from a 4-weeks repeated oral-dose toxicology study in monkeys. […] If none of the initial three patients treated within a dose level experienced a dose-limiting toxicity (DLT) during Cycle 1, the dose was escalated to the next level. […] If none of the three additional patients experienced DLTs after all of them completed Cycle 1, the dose was escalated to the next level. If at least one of the additional three patients developed a DLT, then the dose escalation was stopped and at least six evaluable patients were enrolled at the previous dose level to establish the maximum tolerated dose (MTD). The maximum dose level was defined as Dose Level 9 (150 mg/day). Based on safety and PK results, the dosing schedule could be changed to a BID regimen.
AEs were evaluated and graded according to the National Cancer Institute Common Terminology Criteria for Adverse Events Version 4.03. DLTs were also evaluated and defined as hematologic toxicity (Grade 4 neutropenia lasting >7 days, Grade 4 thrombocytopenia or Grade 3 thrombocytopenia associated with bleeding and requiring blood transfusion, or febrile neutropenia) or non-hematologic toxicity (Grade ≥3 nausea/vomiting uncontrolled by aggressive antiemetic treatment, Grade ≥3 diarrhea lasting >48 h and unresponsive to treatment, Grade ≥3 aspartate aminotransferase/alanine aminotransferase lasting >7 days, corneal disorder worsening by ≥1 grade, or Grade ≥3 other non-hematological toxicity).

## C=CC(=O)N[C@H]1CCc2c(-c3cnc4ccccc4c3)c3c(N)ncnc3n2C1 [TAS-121]
12 mg/day BID, N = 5
  Urticaria, ≥G3: 0 n
  Venous thromboembolism, any grade: 0 n
  Venous thromboembolism, ≥G3: 0 n
  Vomiting, ≥G3: 0 n
  WBC decreased, any grade: 0 n
  WBC decreased, ≥G3: 0 n
12 mg/day QD, N = 3
  ALT increased, ≥G3: 0 n
  AST increased, ≥G3: 0 n
  Decreased appetite, ≥G3: 0 n
  Diarrhea, ≥G3: 0 n
  Dry skin, ≥G3: 0 n
  Embolic and thrombotic events, any grade: 2 n
  Hemoglobin decreased, any grade: 0 n
  Hemoglobin decreased, ≥G3: 0 n
  Hypoalbuminemia, any grade: 0 n
  Hypoalbuminemia, ≥G3: 0 n
  Interstitial lung disease, any grade: 0 n
  Interstitial lung disease, ≥G3: 0 n
  Malaise, ≥G3: 0 n
  Nausea, any grade: 2 n
  Nausea, ≥G3: 0 n
  Other embolic and thrombotic events, any grade: 2 n
  Other embolic and thrombotic events, ≥G3: 0 n
  Platelet count decreased, any grade: 2 n
  Pruritus, any grade: 0 n
  Pruritus, ≥G3: 0 n
  Pyrexia, ≥G3: 0 n
  Rash maculo-papular, any grade: 1 n
  Rash maculo-papular, ≥G3: 0 n
  Rash, any grade: 0 n
  Rash, ≥G3: 0 n
  Stomatitis, ≥G3: 0 n
  Urticaria, any grade: 2 n
  Urticaria, ≥G3: 1 n
  Vomiting, ≥G3: 0 n
  WBC decreased, any grade: 0 n
  WBC decreased, ≥G3: 0 n
16 mg/day QD, N = 3
  ALT increased, any grade: 0 n
  ALT increased, ≥G3: 0 n
  AST increased, any grade: 0 n
  AST increased, ≥G3: 0 n
  Decreased appetite, ≥G3: 0 n
  Diarrhea, any grade: 2 n
  Diarrhea, ≥G3: 1 n
  Dry skin, any grade: 0 n
  Dry skin, ≥G3: 0 n
  Embolic and thrombotic events, any grade: 1 n
  Hemoglobin decreased, any grade: 1 n
  Hemoglobin decreased, ≥G3: 0 n
  Hypoalbuminemia, any grade: 0 n
  Hypoalbuminemia, ≥G3: 0 n
  Interstitial lung disease, ≥G3: 1 n
  Malaise, any grade: 0 n
  Malaise, ≥G3: 0 n
  Nausea, any grade: 1 n
  Nausea, ≥G3: 0 n
  Other embolic and thrombotic events, any grade: 0 n
  Other embolic and thrombotic events, ≥G3: 0 n
  Pruritus, ≥G3: 0 n
  Pyrexia, ≥G3: 0 n
  Rash maculo-papular, any grade: 1 n
  Rash maculo-papular, ≥G3: 0 n
  Rash, any grade: 0 n
  Rash, ≥G3: 0 n
  Stomatitis, ≥G3: 0 n
  Urticaria, any grade: 1 n
  Urticaria, ≥G3: 1 n
  Vomiting, ≥G3: 0 n
  WBC decreased, any grade: 2 n
  WBC decreased, ≥G3: 0 n
BID 8 mg/day
  DLT: Interstitial lung disease^a
BID 8 mg/day, 6 DLT evaluable patients
  Number of patients who experienced a DLT: 1
BID 12 mg/day
  DLT: Interstitial lung disease^a; also recorded: Platelet count decreased; also recorded: Left ventricular failure
BID 12 mg/day, 5 DLT evaluable patients
  Number of patients who experienced a DLT: 2
BID regimen
  patients who presented a DLT: three
  maximum tolerated dose (MTD): 8 mg/day
QD 4 mg/day, 3 DLT evaluable patients
  Number of patients who experienced a DLT: 0
QD 8 mg/day, 6 DLT evaluable patients
  Number of patients who experienced a DLT: 0
QD 10 mg/day
  DLT: Drug-induced liver injury
QD 10 mg/day, 6 DLT evaluable patients
  Number of patients who experienced a DLT: 1
QD 12 mg/day
  DLT: Platelet count decreased; also recorded: Urticaria
QD 12 mg/day, 3 DLT evaluable patients
  Number of patients who experienced a DLT: 2
QD 16 mg/day
  DLT: Urticaria; also recorded: Interstitial lung disease^a
QD 16 mg/day, 3 DLT evaluable patients
  Number of patients who experienced a DLT: 2
QD regimen
  patients who presented a DLT: Five
  maximum tolerated dose (MTD): 10 mg/day
Total, N = 134
  AST increased, ≥G3: 0 n
  Decreased appetite, ≥G3: 0 n
  Dry skin, ≥G3: 0 n
  Hypoalbuminemia, ≥G3: 0 n
  Malaise, ≥G3: 0 n
  Nausea, ≥G3: 0 n
  Pruritus, ≥G3: 0 n
  Stomatitis, ≥G3: 0 n
  WBC decreased, ≥G3: 0 n
All patients, during the study
  treatment-related deaths: No treatment-related deaths
